Assay [1] deals with T1, TcrNT2 (Trypanosoma cruzi, UniProt Q4DHG0). Briefly: Transport of [^3H]-thymidine by TcrNT2 expressed in L. mexicana Cas9^ΔNT1 (Km, inhibition). The format is cell-based. The note with it: for ΔG° (Gibbs free energy of interaction): calculated from Km or Ki at 25 °C; for δ(ΔG°) with respect to ΔG° of thymidine: change in ΔG° relative to thymidine; for Ki: read-out: Ki on the transport of [^3H]-thymidine by TcrNT2. Here is the method:
These values can be used to calculate the Gibbs free energy of interaction ΔG°, but these experiments cannot distinguish between the test compound being transported or merely binding to the transporter and inhibiting the transit of the [^3H]-thymidine.
Transport assays were conducted with radiolabeled nucleosides [methyl-^3H]-thymidine (20 Ci/mmol; PerkinElmer (Waltham, MA, USA)) and [2,8-^3H]-adenosine (40 Ci/mmol; American Radiolabeled Chemicals (ARC, St-Louis, MO, USA)). Cells were harvested from mid-log phase cultures by centrifugation and washed into an assay buffer (AB) as described, at a density of 1 × 10^8 cells mL^−1. Transport assays were then performed exactly as described previously, using an oil-stop protocol. Briefly, 100 µL of cell suspension (10^7 cells) was mixed with 100 µL of [^3H]-substrate at 2 × final concentration and incubated for a pre-set time prior to the addition of 800 µL of ice-cold AB containing a saturating concentration of unlabeled permeant (usually 1 or 2.5 mM) and immediate centrifugation through an oil layer to separate cells from extracellular radiolabel. The 100 µL of [^3H]-substrate could also contain unlabeled substrate or an inhibitor at 2 × concentration, as appropriate. Next, the microfuge tubes were flash frozen in liquid nitrogen; the tips with the cell pellets cut off and collected in scintillation tubes. Cells were solubilized by incubation in 2% SDS under gentle shaking on a rocking platform prior to the addition of scintillation fluid (Scintilogic U, Lablogic, Sheffield, UK). The tubes stored in the dark overnight before counting in a 300SL Hidex Scintillation Counter (Lablogic).
Michaelis-Menten constants (Km) were calculated by plotting transport rates of [^3H]-substrate against the concentration, using the Michaelis-Menten equation V0 = Vmax([substrate]/([substrate] + Km)) and non-linear regression in GraphPad Prism 8. Inhibition constants (Ki) were calculated using the Cheng-Prusoff equation: Ki = IC50/(1 + (L/Km)), where L represents the radiolabel concentration. The IC50 was obtained by a non-linear regression of the inhibition curve of transport rate versus inhibitor concentration, using an equation for a sigmoid curve with variable slope (GraphPad Prism 8). The Gibbs free energy ΔG° was obtained using the equation ΔG° = −RTln(Ki), in which R is the gas constant and T is the absolute temperature. As discussed previously, these equations apply to competitive rather than non-competitive inhibition. Given that only close analogues of the substrate were used as potential inhibitors and that Hill slopes were consistently close to −1, it is very likely that inhibition was indeed competitive.

In assay [2] the target is T1, TcrNT2. Conditions: cited from earlier work; for Ki: earlier characterization, TcrNT2 expressed in T. brucei, ref Campagnaro et al. [30], read-out: Ki on thymidine transport by TcrNT2.
Assay [3] relates to L. mexicana Cas9^ΔNT1+TcrNT2 promastigotes. More on the design: method as in de Almeida Fiuza et al. [41]. The note with it: starred values, ref de Almeida Fiuza et al. [41], cited from earlier work; for RF vs. ΔNT1 (resistance factor): Cas9^ΔNT1+TcrNT2 in comparison to Cas9^ΔNT1; for EC50: L. mexicana Cas9^ΔNT1+TcrNT2 promastigotes, read-out: EC50 (µM) AVG ± SEM, L. mexicana Cas9^ΔNT1+TcrNT2.

Assay [4] concerns L. mexicana Cas9^ΔNT1 promastigotes. Also on record: method as in de Almeida Fiuza et al. [41]. Conditions: starred values, ref de Almeida Fiuza et al. [41], cited from earlier work; for RF vs. Cas9 (resistance factor): EC50 Cas9^ΔNT1 relative to Cas9; for EC50: L. mexicana Cas9^ΔNT1 promastigotes, read-out: EC50 (µM) AVG ± SEM, L. mexicana Cas9^ΔNT1.
For assay [5], the system named is L. mexicana Cas9 promastigotes. More on the design: method as in de Almeida Fiuza et al. [41]. The note with it: starred values, ref de Almeida Fiuza et al. [41], read-out: EC50 (µM) AVG ± SEM, Cas9; cited from earlier work.
In assay [6] the test system is T. cruzi epimastigotes (CL Brener strain). Briefly: In vitro inhibition of proliferation of T. cruzi epimastigotes. Type of assay: cell-based, Trypanosoma cruzi. Conditions: cell densities at the 5th day of proliferation, four independent experiments. Here is the method:
Trypomastigotes were obtained by infecting CHO-K1 cells. CHO-K1 cells were cultivated in RPMI-1640 medium supplemented with 10% heat-inactivated fetal calf serum (FCS), 0.15% (w/v) […], 100 µg mL^−1 penicillin and 130 µg mL^−1 streptomycin and incubated at 37 °C in a humidified atmosphere containing 5% CO2. CHO-K1 cells were initially incubated with metacyclic trypomastigotes obtained by in vitro differentiation of epimastigotes as previously described (multiplicity of infection: 50 parasites per cell) for 4 h. After washing out the non-internalized parasites, the cells were incubated overnight in RPMI medium supplemented with 10% FCS at 37 °C and then maintained at 33 °C in a humidified atmosphere containing 5% CO2 as previously reported. Infected cells were maintained at 33 °C in the presence of 10% FCS. Infected cell-derived trypomastigotes started to burst into the culture medium at the 5th day post-infection. Trypomastigotes collected at day 5 or 6 post infection were used for the viability assays.
The density of exponentially proliferating epimastigotes for each assay was adjusted to 2.0 × 10^6 parasites mL^−1, transferred into 96-well plates (200 μL/well) and incubated with different concentrations of the compounds 5-F-2′-deoxyuridine, 5-F-uracil, 5-F-uridine or benznidazole. A combination of 60 μM rotenone and 0.5 μM antimycin (RA) was used as a positive control for proliferation inhibition (positive control), as previously described. […] The epimastigote proliferation was measured as previously reported, by reading the optical density (OD) at 620 nm every 24 h for 9 days (which collects readings through the exponential and stationary phases). […] The half-maximal inhibitory concentrations (IC50) were determined during the exponential growth phase (fifth day) by adjusting a sigmoidal dose-response function to experimentally obtained data using GraphPad Prism 8. The compounds were assessed in quadruplicate in each experiment, and the results correspond to four independent experiments.

Assay [7] has as its system L. mexicana Cas9 promastigotes. Briefly: Alamar blue drug sensitivity assay, L. mexicana Cas9 promastigotes. The format is cell-based, Leishmania mexicana. Conditions: 72 h + 48 h resazurin, at least 3 independent determinations. The text has this:
(§1) We used L. mexicana promastigotes of the Cas9 strain developed by Beneke at al. to generate the ΔNT1 strain, and from there the Cas9^ΔNT1+TcrNT2 (see below); The original Cas9 strain was generously donated by Prof. Eva Gluenz (University of Bern, Switzerland). All strains in standard HOMEM (GIBCO, Life Technologies, Paisley, UK) supplemented with 10% heat-inactivated fetal bovine serum (FBS; PAA Laboratories, Linz, Austria) and 1% of a penicillin–streptomycin solution (10,000 U mL^−1 each; Life Technologies) at 25 °C, as described.
(§2) The Alamar blue assay (resazurin sodium salt) was used to determine the drug sensitivity of the L. mexicana promastigotes in vitro. The assay is based on the reduction of resazurin sodium salt (blue and non-fluorescent) to resorufin (pink color and fluorescent) by live cells. HOMEM medium with 10% FBS (100 μL) was added to all wells of a white 96-well plate apart from the first well. 200 μL of a known concentration of test compounds was diluted in HOMEM medium and placed in the first well. Compounds were tested in one plate and every compound was diluted over two rows (23 concentrations), leaving the last well of every dilution as a negative control having 100 μL HOMEM medium. Next, 100 μL of L. mexicana culture at a density of 2 × 10^6 cells mL^−1 was added into every well in the plate and incubated for 72 h at a temperature of 25 °C after which resazurin sodium salt (Sigma) (20 μL of a solution of 12.5 mg in 100 mL PBS) was added and the plate was incubated under the same conditions for a further 48 h. Fluorescence was measured in a FLUOstar OPTIMA plate reader (BMG Labtech, Germany), at a wavelength of 544 nm for excitation and 620 nm for emission. The EC50 values and fluorescence data were determined and plotted by the GraphPad Prism 8 Software using an equation for a sigmoid curve with variable slope. Pentamidine was used as positive control and every experiment was performed 3–4 times independently.

For assay [8], the system named is L. mexicana Cas9^ΔNT1 promastigotes. Briefly: Alamar blue drug sensitivity assay, L. mexicana Cas9^ΔNT1 promastigotes. Type of assay: cell-based, Leishmania mexicana. The note with it: L. mexicana Cas9^ΔNT1 promastigotes, 72 h + 48 h resazurin.
From the text: as §1, §2

In assay [9] the test system is L. mexicana Cas9^ΔNT1+TcrNT2 promastigotes. Put plainly: Alamar blue drug sensitivity assay, L. mexicana Cas9^ΔNT1+TcrNT2 promastigotes. Conditions: L. mexicana Cas9^ΔNT1+TcrNT2 promastigotes, 72 h + 48 h resazurin. Type of assay: cell-based, Leishmania mexicana.
From the text: as §1, §2
(In general: Resazurin is reduced to fluorescent resorufin, in cell work by metabolically active cells.)

The structures appear in SMILES notation. Where two headings read alike, the source gives them in different places. Bounds are passed on as bounds.

T1 sequence (Q4DHG0 entry or part of it): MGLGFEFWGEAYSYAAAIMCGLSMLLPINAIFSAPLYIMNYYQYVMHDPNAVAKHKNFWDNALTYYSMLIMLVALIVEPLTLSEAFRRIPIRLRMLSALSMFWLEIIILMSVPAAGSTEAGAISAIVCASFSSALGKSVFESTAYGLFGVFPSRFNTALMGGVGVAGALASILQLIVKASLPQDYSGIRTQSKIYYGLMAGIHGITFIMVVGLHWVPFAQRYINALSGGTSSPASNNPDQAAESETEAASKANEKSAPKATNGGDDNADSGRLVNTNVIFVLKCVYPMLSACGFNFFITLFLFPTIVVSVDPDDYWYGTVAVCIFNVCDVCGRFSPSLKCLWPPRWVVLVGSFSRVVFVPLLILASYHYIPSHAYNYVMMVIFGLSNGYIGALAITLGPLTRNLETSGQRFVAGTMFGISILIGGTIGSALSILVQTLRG

Take `O=c1ccn([C@H]2C[C@H](O)[C@@H](CO)O2)c(=O)[nH]1` [2′-deoxyuridine]: on TcrNT2 [1], the “ΔG° (Gibbs free energy of interaction)” value is -33.6 kJ/mol, the “δ(ΔG°) with respect to ΔG° of thymidine” value is -3.99 kJ/mol and the Ki worked out at 1.31 ± 0.002 µM. On TcrNT2 [2], the Ki was 1.11 ± 0.1 µM.
As for `Nc1ncnc2c1c(Cl)cn2[C@@H]1O[C@H](CO)[C@@H](O)[C@H]1O` [FH3169], in assay [3], the “RF vs. ΔNT1 (resistance factor)” value was 6.26 and the EC50 was 0.32 ± 0.05 µM. In [4], the “RF vs. Cas9 (resistance factor)” value was 8.43 and the EC50 was 2 ± 0.19 µM. Further, the EC50 in assay [5] is 0.24 ± 0.055 µM.
For the compound `O=c1[nH]cc(F)c(=O)[nH]1` [5-F-uracil], the 50% inhibitory concentration (IC50) in [6] was 25.9 ± 0.01 µM. Also, the “EC50 (µM) AVG ± SEM, Cas9” value in assay [7] was “poorly active”. Moreover, the “EC50 (µM) AVG ± SEM, L. mexicana Cas9^ΔNT1” value in [8] is “poorly active”. In addition, the “EC50 (µM) AVG ± SEM, L. mexicana Cas9^ΔNT1+TcrNT2” value in assay [9] is reported as “poorly active”.
Consider `Nc1ncnc2c1c(-c1ccccc1)cn2[C@@H]1O[C@H](CO)[C@@H](O)[C@H]1O` [TH1004], for which, in [3], the “RF vs. ΔNT1 (resistance factor)” value is 1.37 and the EC50 is 101 ± 0.5 µM. Moreover, in assay [4], the “RF vs. Cas9 (resistance factor)” value is listed as 3.7 and the EC50 was 138 ± 10 µM. For the same compound, the EC50 in assay [5] is 37 ± 0.23 µM.
As for `Nc1ncnc2c1c(-c1ccc(Cl)cc1)cn2[C@@H]1O[C@H](CO)[C@@H](O)[C@H]1O` [TH1012], the “RF vs. ΔNT1 (resistance factor)” value in [3] is 2.90. In addition, the results for the EC50 in assay [3], in [4] and in assay [5] were 96.6 ± 0.3 µM, 280 ± 18 µM and 52.5 ± 0.3 µM, respectively. Besides, in assay [4], the “RF vs. Cas9 (resistance factor)” value was 5.3.
Turning to `O=c1ccn([C@@H]2O[C@H](CO)[C@@H](O)[C@H]2O)c(=O)[nH]1` [Uridine], at TcrNT2 [1], the “ΔG° (Gibbs free energy of interaction)” value is -21.5 kJ/mol, the “δ(ΔG°) with respect to ΔG° of thymidine” value was -16.1 kJ/mol and the Ki is 172 ± 8 µM. The “δ(ΔG°) with respect to ΔG° of thymidine” value on TcrNT2 [1] (listed as uridine) stood at 16.1 kJ/mol. In addition, on TcrNT2 [1] (pairwise comparison vs. 2′-deoxyuridine), the “δ(ΔG°), pairwise comparison with 2′-deoxyuridine” value came out at 12.1 kJ/mol. Also, the “fold lower affinity than thymidine” value on TcrNT2 [2] (TcrNT2 expressed in T. b. brucei, ref [30]) is listed as 300 fold.
Regarding `Nc1ccn([C@@H]2O[C@H](CO)[C@@H](O)[C@H]2O)c(=O)n1` [cytidine], the Ki at TcrNT2 [2] was 728 ± 71 µM.
Turning to `Nc1ncnc2c1c(-c1ccc(Cl)c(F)c1)cn2[C@@H]1O[C@H](CO)[C@@H](O)[C@H]1O` [FH10714], the EC50 in assay [3], in assay [4] and in [5] was above 500 µM throughout.
Consider `O=c1[nH]c(=O)n([C@@H]2O[C@H](CO)[C@@H](O)[C@H]2O)cc1F` [5-F-uridine], for which the IC50 in assay [6] is above 500 µM. In addition, the EC50 is above 500 µM in [7] (read-out: EC50 (µM) AVG ± SEM, Cas9); above 500 µM in assay [8] (read-out: EC50 (µM) AVG ± SEM, L. mexicana Cas9^ΔNT1); above 500 µM in [9] (read-out: EC50 (µM) AVG ± SEM, L. mexicana Cas9^ΔNT1+TcrNT2).

By Ki is commonly meant a measure of affinity in units of concentration, obtained from inhibition or displacement. Usually EC50 stands for the concentration at which the effect is half-maximal. Usually IC50 stands for the concentration that gives 50% inhibition.

The values above are taken from PMC9693223 (Molecules, 2022).
